Source: PMC3527451, “A Pilot Randomized, Placebo Controlled, Double Blind Phase I Trial of the Novel SIRT1 Activator SRT2104 in Elderly Volunteers” (PLoS ONE, 2012)
Entries after “also recorded” stand apart in the source; their conditions may differ.

Experiment: Plasma pharmacokinetics of SRT2104, once daily oral dosing for 28 days in elderly volunteers
Type: in vivo, human
Conditions: for AUC(0-∞), Geometric Least Square Mean: Day 1, AUC(0-∞); for AUC(0-t)_D, dose-normalized Geometric Least Square Mean / AUC(0-∞)_D, dose-normalized Geometric Least Square Mean / Cmax_D, dose-normalized Geometric Least Square Mean / AUC(0-τ)_D, dose-normalized Geometric Least Square Mean: normalized to 0.5 g
Description: This was a phase I, single-center, double-blind, randomized, placebo-controlled, parallel-arm study to assess the safety, tolerability, pharmacokinetic and initial pharmacodynamic properties of […] Pharmaceuticals, Cambridge, MA, USA) administered for the first time to male and female elderly volunteers 60 to 80 years of age. Volunteers were enrolled between 01 Oct 2009 and 5 Feb 2010. […] The selection of the doses investigated in this study was based upon safety and pharmacokinetic data obtained from a previous clinical study involving SRT2104 [19]. Suitability of participants was defined on the basis of a medical history, physical examination, vital signs, electrocardiogram and laboratory measurements. Subjects were required to have normal fasting glucose levels (4.4 to 6.0 mmol/L) at screening and a body mass index of at least 18 kg/m^2 and no greater than 30 kg/m^2. […] Subjects were deemed ineligible if they participated in any clinical trial with an investigative medicinal product within the past three months prior to the first dose in the current study, had been exposed to more than three new chemical entities within 12 months of enrollment, or used other concomitant medications and herbal products in the previous 3 months that in the opinion of the investigator could interfere with the study procedures or compromise subject safety. Additional exclusions included: women of childbearing potential and non-sterile men, unless they agreed to use acceptable method of contraception; history of alcoholism or drug abuse (including a positive pre-study drug/alcohol test at screening); use of tobacco or nicotine products; history of complications when donating blood or known relative inaccessibility of veins for venipuncture; donation of blood within three months of enrolment; history of significant drug or other allergies. Participants were asked to maintain their usual level of physical activity for the duration of the study. During the treatment phase of the study (days 1 to 28 inclusive), test material (SRT2104 or placebo) was supplied as 250 mg capsules and was administered at approximately the same time every morning, approximately 15 minutes following consumption of a standardized meal (Ensure Plus®, a high energy, high protein liquid meal replacement product providing approximately 650 kcal with approximately 30% of calories derived from fat). Subjects were not permitted to consume additional calories for at least 1-2 hours after dosing, although water was permitted ad libitum. Subjects were also instructed to refrain from caffeine and alcohol for 24 hours prior to screening and during assessments visits. The test material was administered within the investigation clinical unit on the days when serial pharmacokinetic sampling was performed (days 1-2 and 28-29) and at home on the remaining days (days 3-27). A diary card was provided to volunteers to confirm daily consumption of the standardized meal, as well as time of dose and number of capsules taken. Missing doses were recorded. Pharmacokinetic samples were collected through 24 hours post-dose on the first and last day of the dosing period (immediately prior to dosing and at 15, 30 minutes and 1, 2, 3, 4, 8, 12 and 24 hours post-dose). Blood samples for pharmacokinetic analysis were collected in pre-labelled lithium heparin heparin Vacutainers for pharmacokinetic analysis (∼4 mL per draw). Each sample was separated by centrifugation at 1500×g and 4°C for 10 minutes. Two equal aliquots of plasma were transferred to polypropylene vials labelled identically to the original blood sample and stored at approximately -20°C for subsequent analysis of plasma SRT2104 concentration. The bio-analysis was performed by Simbec Research Ltd, […], South Wales, UK. Pharmacokinetic parameters for SRT2104 were derived from non-compartmental methods using WinNonLin v5.2 (Pharsight Corporation, Mountain View, CA, USA). […]

[1] = 0.5 or 2.0 g once daily, abstract summary

## Cc1nc(-c2cccnc2)sc1C(=O)Nc1ccccc1-c1cn2c(CN3CCOCC3)csc2n1 [SRT2104]
0.5 g/day group
  Tmax (mean peak plasma concentration): 2 to 4 h
  between-subject variability for AUC(0–24), geometric mean CV: 140%
0.5 g/day group, after first administration
  t1/2 of one subject: 29.7 h
0.5 g/day group, after repeated administrations
  t1/2 of one subject: 28.3 h
0.5 g/day, Day 1
  AUC(0-t), Geometric Least Square Mean: 1950.07 ng·h/mL
  Cmax, Geometric Least Square Mean: 326.22 ng/mL
0.5 g/day
  AUC(0-∞), Geometric Least Square Mean: 2503.70 ng·h/mL
0.5 g/day, Day 1, geometric mean
  AUC0-∞: 1790.8 ng·h/mL
0.5 g/day, Day 1, mean
  AUC0-t: 1872.9 ng·h/mL
  CL/F: 594.2 L/h
  Cmax: 343.4 ng/mL
  t1/2: 14.9 h
0.5 g/day, Day 1, median
  tmax: 3.0 h
0.5 g/day, Day 28
  AUC(0-t), Geometric Least Square Mean: 1610.10 ng·h/mL
  Cmax, Geometric Least Square Mean: 199.12 ng/mL
0.5 g/day, Day 28, geometric mean
  AUC0-∞: 2687.8 ng·h/mL
0.5 g/day, Day 28, mean
  AUC0-t: 2280.4 ng·h/mL
  CL/F: 566.9 L/h
  Cmax: 373.4 ng/mL
  t1/2: 17.5 h
0.5 g/day, Day 28, median
  tmax: 3.0 h
[1]
  Mean Tmax: 2 to 4 h
  elimination half-life: 15 to 20 h
0.5 to 2.0 g/day
  dose proportionality of exposure (Cmax, AUC): less than dose-proportionally; also recorded: less than dose proportional increase in exposure
2.0 g/day group
  between-subject variability for AUC(0–24), geometric mean CV: 102%
2.0 g/day group, after the first dose
  Tmax (apparent mean rise to peak concentration): 2 to 8 h
2.0 g/day, Day 1
  AUC(0-t), Geometric Least Square Mean: 1743.14 ng·h/mL
  Cmax, Geometric Least Square Mean: 301.28 ng/mL
2.0 g/day
  AUC(0-∞), Geometric Least Square Mean: 1788.42 ng·h/mL
2.0 g/day, Day 1, geometric mean
  AUC0-∞: 2073.5 ng·h/mL
2.0 g/day, Day 1, mean
  AUC0-t: 3249.2 ng·h/mL
  CL/F: 1624.4 L/h
  Cmax: 477.6 ng/mL
  t1/2: 15.1 h
2.0 g/day, Day 1, median
  tmax: 3.0 h
2.0 g/day, Day 28
  AUC(0-t), Geometric Least Square Mean: 3577.50 ng·h/mL
  Cmax, Geometric Least Square Mean: 389.50 ng/mL
2.0 g/day, Day 28, geometric mean
  AUC0-∞: 7729.6 ng·h/mL
2.0 g/day, Day 28, mean
  AUC0-t: 4797.4 ng·h/mL
  CL/F: 789.6 L/h
  Cmax: 572.4 ng/mL
  t1/2: 21.6 h
2.0 g/day, Day 28, median
  tmax: 3.0 h
2.0 g/day, repeat administration
  increase in mean AUC(0–24) relative to the first day of dosing: approximately two-fold increases
Day 1, 0.5 g/day
  AUC(0-t)_D, dose-normalized Geometric Least Square Mean: 1297.86 ng·h/mL
  AUC(0-∞)_D, dose-normalized Geometric Least Square Mean: 1754.57 ng·h/mL
  Cmax_D, dose-normalized Geometric Least Square Mean: 215.74 ng/mL
Day 1, 2.0 g/day
  AUC(0-t)_D, dose-normalized Geometric Least Square Mean: 516.59 ng·h/mL
  AUC(0-∞)_D, dose-normalized Geometric Least Square Mean: 504.43 ng·h/mL
  Cmax_D, dose-normalized Geometric Least Square Mean: 69.64 ng/mL
Day 1, dose proportionality
  AUC(0-t)_D, % Ratio (90% C.I.) 2.0 g/0.5 g: 39.80 (14.39–110.07) %
  AUC(0-∞)_D, % Ratio (90% C.I.) 2.0 g/0.5 g: 28.75 (9.56–86.49) %
  Cmax_D, % Ratio (90% C.I.) 2.0 g/0.5 g: 32.28 (10.41–100.15) %
Day 28, 0.5 g/day
  AUC(0-t)_D, dose-normalized Geometric Least Square Mean: 1548.09 ng·h/mL
  AUC(0-τ)_D, dose-normalized Geometric Least Square Mean: 1548.74 ng·h/mL
  AUC(0-∞)_D, dose-normalized Geometric Least Square Mean: 2636.12 ng·h/mL
  Cmax_D, dose-normalized Geometric Least Square Mean: 206.06 ng/mL
Day 28, 2.0 g/day
  AUC(0-t)_D, dose-normalized Geometric Least Square Mean: 911.01 ng·h/mL
  AUC(0-τ)_D, dose-normalized Geometric Least Square Mean: 909.85 ng·h/mL
  AUC(0-∞)_D, dose-normalized Geometric Least Square Mean: 1903.42 ng·h/mL
  Cmax_D, dose-normalized Geometric Least Square Mean: 96.83 ng/mL
Day 28, dose proportionality
  AUC(0-t)_D, % Ratio (90% C.I.) 2.0 g/0.5 g: 58.85 (25.18–137.51) %
  AUC(0-τ)_D, % Ratio (90% C.I.) 2.0 g/0.5 g: 58.75 (25.10–137.52) %
  AUC(0-∞)_D, % Ratio (90% C.I.) 2.0 g/0.5 g: 72.21 (33.02–157.88) %
  Cmax_D, % Ratio (90% C.I.) 2.0 g/0.5 g: 46.99 (15.44–142.99) %
human, in vivo
  Cmax, AUC(0-τ) and AUC(0–24) exposures in the 2.0 g/day group compared to the 0.5 g/day group: approximately two-fold higher or less
  differences in exposure between men and women: No apparent differences in exposure
mono-exponential decline, both doses
  apparent half-life: approximately 15 hours
